According to US8562949B2, “Radiolabeled dihydrotetrabenazine derivatives and their use as imaging agents” (The Trustees of the University of Pennsylvania, priority 2006, dated 2013):

Molecular target: VMAT2 (Mus musculus, UniProt Q8BRU6)
Experiment: Blocking study in normal mice, co-injection of DTBZ or raclopride
Assay type: in vivo
Parameters: from tissue; host or cells: living ICR mice and lesioned mice; brain regions dissected after iv injection
Details: 30 min after iv
Description: While under isoflurane anesthesia, 0.15 mL of a 0.1% bovine serum albumin solution containing [^18F]tracers (10-20 μCi) were injected directly into the tail vein of ICR mice (22-25 g, male) The mice (n=3 for each time point) were sacrificed by cervical dislocation at indicated time points post injection. The organs of interest were removed and weighed, and the radioactivity was counted with an automatic gamma counter. The percentage dose per organ was calculated by a comparison of the tissue counts to suitably diluted aliquots of the injected material. Total activities of blood were calculated under the assumption that they were 7% of the total body weight. The % dose/g of samples was calculated by comparing the sample counts with the count of the diluted initial dose. Different regions corresponding to striatum (ST), hippocampus (HP), cerebellum (CB), and cortex (CX) were dissected out from the brain.
Blocking studies were carried out by co-injection (iv) of the ^18F tracer with (±)DTBZ (3 mg/kg) or raclopride (1.2 mg/kg) into the animals. Thirty minutes after the injection, the animals were sacrificed and the brain regions including ST, HP, CB and CX were dissected out and the % dose/g were calculated. The ratios of target (ST) vs nontarget (CB) were compared between control and blocked groups.

Chain of VMAT2 (Q8BRU6 whole entry): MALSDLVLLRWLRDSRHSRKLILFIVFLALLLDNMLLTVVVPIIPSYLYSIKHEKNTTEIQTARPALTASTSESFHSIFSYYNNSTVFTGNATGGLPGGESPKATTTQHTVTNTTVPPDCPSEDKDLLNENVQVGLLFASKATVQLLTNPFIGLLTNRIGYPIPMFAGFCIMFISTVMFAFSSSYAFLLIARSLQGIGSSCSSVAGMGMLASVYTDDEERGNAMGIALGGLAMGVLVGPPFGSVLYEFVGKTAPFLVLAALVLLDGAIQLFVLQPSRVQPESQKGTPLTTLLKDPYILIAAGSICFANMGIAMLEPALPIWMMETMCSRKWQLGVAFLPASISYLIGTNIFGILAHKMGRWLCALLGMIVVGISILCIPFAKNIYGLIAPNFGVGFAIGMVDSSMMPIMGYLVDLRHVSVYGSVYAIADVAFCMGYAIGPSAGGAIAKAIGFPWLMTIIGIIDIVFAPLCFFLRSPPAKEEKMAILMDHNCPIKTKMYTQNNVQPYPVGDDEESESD

COc1cc2c(cc1OCCC[18F])CCN1CC(CC(C)C)C(O)CC21 (racemic) [[^18F]6b]
Organ distribution Blood (Control): 1.41 ± 0.20 % dose/g
Organ distribution Bone (Control): 6.06 ± 1.11 % dose/g
Organ distribution Brain (Control): 1.40 ± 0.12 % dose/g
Organ distribution Heart (Control): 2.05 ± 0.13 % dose/g
Organ distribution Kidney (Control): 5.90 ± 0.42 % dose/g
Organ distribution Liver (Control): 13.9 ± 1.15 % dose/g
Organ distribution Lung (Control): 2.78 ± 0.20 % dose/g
Organ distribution Muscle (Control): 1.06 ± 0.06 % dose/g
Organ distribution Skin (Control): 1.48 ± 0.09 % dose/g
Organ distribution Spleen (Control): 2.90 ± 0.14 % dose/g
Ratio (vs CB) Cortex (Control): 1.15
Ratio (vs CB) Hippocampus (Control): 1.36
Ratio (vs CB) Hypothalamus (Control): 2.54
Ratio (vs CB) Striatum (Control): 3.40
Regional brain distribution Cerebellum (CB) (Control): 1.05 ± 0.09 % dose/g
Regional brain distribution Cortex (Control): 1.21 ± 0.15 % dose/g
Regional brain distribution Hippocampus (Control): 1.43 ± 0.12 % dose/g
Regional brain distribution Hypothalamus (Control): 2.67 ± 0.30 % dose/g
Regional brain distribution Striatum (Control): 3.57 ± 0.30 % dose/g
Organ distribution Blood (with 1.2 mg/kg raclopride): 1.60 ± 0.08 % dose/g
Organ distribution Bone (with 1.2 mg/kg raclopride): 6.03 ± 1.07 % dose/g
Organ distribution Brain (with 1.2 mg/kg raclopride): 1.64 ± 0.16 % dose/g
Organ distribution Heart (with 1.2 mg/kg raclopride): 2.29 ± 0.06 % dose/g
Organ distribution Kidney (with 1.2 mg/kg raclopride): 6.01 ± 0.50 % dose/g
Organ distribution Liver (with 1.2 mg/kg raclopride): 14.6 ± 0.44 % dose/g
Organ distribution Lung (with 1.2 mg/kg raclopride): 3.34 ± 0.24 % dose/g
Organ distribution Muscle (with 1.2 mg/kg raclopride): 1.15 ± 0.03 % dose/g
Organ distribution Skin (with 1.2 mg/kg raclopride): 1.58 ± 0.09 % dose/g
Organ distribution Spleen (with 1.2 mg/kg raclopride): 3.25 ± 0.20 % dose/g
Ratio (vs CB) Cortex (with 1.2 mg/kg raclopride): 1.18
Ratio (vs CB) Hippocampus (with 1.2 mg/kg raclopride): 1.59
Ratio (vs CB) Hypothalamus (with 1.2 mg/kg raclopride): 2.12
Ratio (vs CB) Striatum (with 1.2 mg/kg raclopride): 3.93
Regional brain distribution Cerebellum (CB) (with 1.2 mg/kg raclopride): 1.19 ± 0.11 % dose/g
Regional brain distribution Cortex (with 1.2 mg/kg raclopride): 1.41 ± 0.15 % dose/g
Regional brain distribution Hippocampus (with 1.2 mg/kg raclopride): 1.89 ± 0.85 % dose/g
Regional brain distribution Hypothalamus (with 1.2 mg/kg raclopride): 2.52 ± 0.77 % dose/g
Regional brain distribution Striatum (with 1.2 mg/kg raclopride): 4.67 ± 1.29 % dose/g
Organ distribution Blood (with 3 mg/kg (+)DTBZ): 1.67 ± 0.04 % dose/g
Organ distribution Bone (with 3 mg/kg (+)DTBZ): 6.54 ± 0.84 % dose/g
Organ distribution Brain (with 3 mg/kg (+)DTBZ): 0.86 ± 0.04 % dose/g
Organ distribution Heart (with 3 mg/kg (+)DTBZ): 2.36 ± 0.07 % dose/g
Organ distribution Kidney (with 3 mg/kg (+)DTBZ): 4.94 ± 3.38 % dose/g
Organ distribution Liver (with 3 mg/kg (+)DTBZ): 14.0 ± 0.56 % dose/g
Organ distribution Lung (with 3 mg/kg (+)DTBZ): 3.27 ± 0.17 % dose/g
Organ distribution Muscle (with 3 mg/kg (+)DTBZ): 1.28 ± 0.07 % dose/g
Organ distribution Skin (with 3 mg/kg (+)DTBZ): 1.67 ± 0.02 % dose/g
Organ distribution Spleen (with 3 mg/kg (+)DTBZ): 2.67 ± 0.17 % dose/g
Ratio (vs CB) Cortex (with 3 mg/kg (+)DTBZ): 1.03
Ratio (vs CB) Hippocampus (with 3 mg/kg (+)DTBZ): 0.94
Ratio (vs CB) Hypothalamus (with 3 mg/kg (+)DTBZ): 1.04
Ratio (vs CB) Striatum (with 3 mg/kg (+)DTBZ): 0.98
Regional brain distribution Cerebellum (CB) (with 3 mg/kg (+)DTBZ): 0.89 ± 0.16 % dose/g
Regional brain distribution Cortex (with 3 mg/kg (+)DTBZ): 0.91 ± 0.13 % dose/g
Regional brain distribution Hippocampus (with 3 mg/kg (+)DTBZ): 0.83 ± 0.27 % dose/g
Regional brain distribution Hypothalamus (with 3 mg/kg (+)DTBZ): 0.92 ± 0.23 % dose/g
Regional brain distribution Striatum (with 3 mg/kg (+)DTBZ): 0.87 ± 0.18 % dose/g
